According to US11840686B2, “Modulation of prekallikrein (PKK) expression” (Ionis Pharmaceuticals, Inc., priority 2013, dated 2023):
Where “and” joins values, the source holds several entries; their conditions need not be identical. Identical values can stand only once.

What was measured:
human PKK mRNA [1] = test: Antisense inhibition of human PKK mRNA in HepaRG cells, 1,000 nM, MOE/deoxy/cEt oligonucleotides (Example 3); assay type: cell-based; conditions: HepaRG cells, 1,000 nM, electroporation, 24 hours
How it was run: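 HepaRG cells at 20,000 per well electroporated with 1,000 nM 16-mer MOE/cEt/deoxy gapmers (phosphorothioate, 5-methylcytosine). After about 24 h, PKK mRNA measured by qRT-PCR with primer probe set RTS3454, normalized to RIBOGREEN total RNA. Reported as percent inhibition versus untreated cells.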

[2] = Tolerability / clinical observation of cynomolgus monkeys (Example 8); assay type: in vivo, cynomolgus monkey; conditions: primates, Example 8
Method: Cynomolgus monkeys were treated with ISIS antisense oligonucleotides selected from studies described above. Antisense oligonucleotide efficacy and tolerability were evaluated. The human antisense oligonucleotides tested are cross-reactive with the rhesus genomic sequence (GENBANK Accession No. NW_001118167.1 truncated from nucleotides 2358000 to 2391000 and designated herein as SEQ ID NO: 18).
During the study period, the monkeys were observed a minimum of once daily for signs of illness or distress. Any animal experiencing more than momentary or slight pain or distress due to the treatment, injury or illness was promptly reported to the responsible veterinarian and the Study Director. Any animal in poor health or in a possible moribund condition was identified for further monitoring and possible euthanasia. […] The protocols described in the Example were approved by the Institutional Animal Care and Use Committee (IACUC).

human PKK mRNA [3] = test: Human PKK mRNA in liver of human KLKB1 transgenic mice (Example 7); assay type: in vivo
How it was run: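 Transgenic mice carrying a 37,390 bp human KLKB1 fragment dosed subcutaneously twice weekly for 3 weeks at 2.5, 5.0, 10 or 20 mg/kg/week; PBS controls. Liver harvested 48 h after the last dose. Human PKK mRNA measured by real-time PCR and expressed as % inhibition versus PBS.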

PKK mRNA = PKK mRNA in cynomolgus monkey liver (Example 8); assay type: in vivo; conditions: primates, Example 8
How it was run: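 Cynomolgus monkeys were dosed with human antisense oligonucleotides cross-reactive with the rhesus sequence. Liver RNA taken on day 87 or 88, 48 h after the last dose, was assayed by real-time PCR (primer probe set RTS3455) and normalized to cyclophilin. Values are percent PKK mRNA inhibition versus PBS control.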

PKK protein [4] = test: Plasma PKK protein levels in human KLKB1 transgenic mice (Example 7); assay type: in vivo; conditions: transgenic mice
How it was run: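 Human KLKB1 transgenic mice dosed subcutaneously twice weekly for 3 weeks with antisense oligonucleotides at 2.5, 5.0, 10 or 20 mg/kg/week. Plasma collected 48 hours after the final dose; PKK protein expressed as percent inhibition relative to PBS-treated controls.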

[5] = Kidney function: plasma BUN and creatinine in cynomolgus monkeys (Example 8); conditions: 40 mg/kg s.c.
Method: (§1) Prior to the study, the monkeys were kept in quarantine for a 30-day period, during which the animals were observed daily for general health. The monkeys were 2-4 years old and weighed between 2 and 4 kg. Ten groups of four randomly assigned male cynomolgus monkeys each were injected subcutaneously with ISIS oligonucleotide or PBS. PBS solution or ISIS oligonucleotides at a dose of 40 mg/kg were administered initially with a loading regimen consisting of four doses on the first week of the study (days 1, 3, 5, and 7), followed by a maintenance regimen consisting of once weekly administration starting on Day 14 (weeks 2 to 13). Subcutaneous injections were performed in clock-wise rotations at 4 sites on the back; one site per dose. The injection sites were delineated by tattoo, while sedated using ketamine, and were separated by a minimum of 3 cm.
To evaluate the effect of ISIS oligonucleotides on kidney function, the monkeys were fasted overnight. Approximately, 1.5 mL of blood samples were collected from all the study groups. Blood was collected in tubes without anticoagulant for serum separation. The tubes were kept at room temperature for a minimum of 90 min and then centrifuged at 3,000 rpm for 10 min. Levels of BUN and creatinine were measured using a Toshiba 120FR NEO chemistry analyzer (Toshiba Co., Japan).

[6] = Hematological parameters in cynomolgus monkeys (Example 8); conditions: cynomolgus monkey, 40 mg/kg sc, day 87 or day 88
Method: as §1
To evaluate any effect of ISIS oligonucleotides in cynomolgus monkeys on hematologic parameters, blood samples of approximately 1.2 mL of blood was collected pre-dose and on day 87 or day 88 from each of the available study animals in tubes containing K2-EDTA. Samples were analyzed for red blood cell (RBC) count, white blood cells (WBC) count, platelet count, hemoglobin content and hematocrit, using an ADVIA2120i hematology analyzer (SIEMENS, USA).

[7] = Urine protein/creatinine ratio in cynomolgus monkeys (Example 8); conditions: cynomolgus monkey, 40 mg/kg sc
[8] = C-reactive protein and complement C3 levels in cynomolgus monkeys (Example 8); conditions: cynomolgus monkey plasma, 40 mg/kg sc
[9] = Liver function markers in cynomolgus monkeys (Example 8); conditions: cynomolgus monkey plasma, 40 mg/kg sc
Method: as §1
To evaluate the effect of ISIS oligonucleotides on hepatic function, the monkeys were fasted overnight. Approximately, 1.5 mL of blood samples were collected from all the study groups. Blood was collected in tubes without anticoagulant for serum separation. The tubes were kept at room temperature for a minimum of 90 min and then centrifuged at 3,000 rpm for 10 min. Levels of various liver function markers were measured using a Toshiba 120FR NEO chemistry analyzer (Toshiba Co., Japan).

PKK protein [10] = test: PKK protein in cynomolgus monkey plasma by ELISA (Example 8); assay type: in vivo; conditions: 40 mg/kg sc
Method: Approximately 0.9 mL of blood was collected each time from all available animals at pre-dose, day 17, day 31, day 45, day 59, and day 73, and placed in tubes containing 3.2% sodium citrate. The tubes were centrifuged (3000 rpm for 10 min at room temperature) to obtain plasma. PKK protein levels were measured in the plasma by ELISA. The results are presented in Table 52, expressed as percentage inhibition compared to the PBS control levels.

human PKK mRNA [11] = test: Dose-dependent antisense inhibition of human PKK in HepaRG cells, 0.19-5.00 uM (Example 5); assay type: cell-based; conditions: 4 point dose response curve (0.19-5.0 μM), HepaRG cells, electroporation
How it was run: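 HepaRG cells (20,000/well) were electroporated with antisense oligonucleotide at 0.19, 0.56, 1.67 and 5.00 μM and treated for about 16 hours. PKK mRNA was quantified by qRT-PCR with primer probe set RTS3454, normalised to RIBOGREEN total RNA, and IC50 was derived per oligonucleotide.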

human PKK mRNA [12] = test: Antisense inhibition of human PKK mRNA in HepaRG cells, 5,000 nM (Example 2); assay type: cell-based; conditions: HepaRG cells, 5,000 nM, electroporation, 24 hours
How it was run: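 HepaRG cells, 20,000 per well, were electroporated with 5,000 nM MOE gapmer (phosphorothioate, 5-methylcytosine) and incubated about 24 hours. PKK mRNA was quantified by qRT-PCR with primer probe set RTS3454, normalized to RIBOGREEN total RNA, and expressed as percent inhibition versus untreated controls.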

| Substance | tolerability in primates [2] | inhibiting PKK mRNA and protein expression in primates (PKK mRNA) | Plasma BUN [5] [mg/dL] | Plasma Creatinine [5] [mg/dL] | HCT [6] [%] | Hemoglobin [6] [g/dL] | Platelets [6] [µL⁻¹] | RBC [6] [µL⁻¹] | WBC [6] [µL⁻¹] | Urine protein/creatinine ratio [7] | C3 (% of baseline) [8] | CRP [8] [mg/dL] | ALT [9] [IU/L] | AST [9] [IU/L] | Albumin [9] [g/dL] | PKK protein level reduction (%) in plasma relative to control levels (PKK protein [10]; Day 17) [%] | PKK protein level reduction (%) in plasma relative to control levels (PKK protein [10]; Day 31) [%] | PKK protein level reduction (%) in plasma relative to control levels (PKK protein [10]; Day 45) [%] | PKK protein level reduction (%) in plasma relative to control levels (PKK protein [10]; Day 59) [%] | PKK protein level reduction (%) in plasma relative to control levels (PKK protein [10]; Day 73) [%] | other results |
| --- | --- | --- | --- | --- | --- | --- | --- | --- | --- | --- | --- | --- | --- | --- | --- | --- | --- | --- | --- | --- | --- |
| mCes Ges Aks Tds Ads Tds mCds Ads Tds Gds Ads Tds Tds mCks mCks mCe [ISIS 548048] | tolerable in primates | effective for inhibiting PKK mRNA and protein expression | 21.9 | 0.9 | 44 | 13.4 | 393000 | 5.9e+06 | 11000 | 0.03 | 69 % of baseline | 0.2 | 47 | 44 | 4.2 | 90 | 93 | 95 | 95 | 95 | mRNA inhibition (human PKK mRNA [1]): 84%; human PKK mRNA inhibition (human PKK mRNA [3]; transgenic mice, 2.5 mg/kg/week s.c. twice a week for 3 weeks): 7%; human PKK mRNA inhibition (human PKK mRNA [3]; transgenic mice, 5.0 mg/kg/week s.c. twice a week for 3 weeks): 77%; human PKK mRNA inhibition (human PKK mRNA [3]; transgenic mice, 10 mg/kg/week s.c. twice a week for 3 weeks): 72%; human PKK mRNA inhibition (human PKK mRNA [3]; transgenic mice, 20 mg/kg/week s.c. twice a week for 3 weeks): 80%; human PKK protein inhibition (PKK protein [4]; 2.5 mg/kg/week s.c. twice a week for 3 weeks): 23%; human PKK protein inhibition (PKK protein [4]; 5.0 mg/kg/week s.c. twice a week for 3 weeks): 70%; human PKK protein inhibition (PKK protein [4]; 10 mg/kg/week s.c. twice a week for 3 weeks): 89%; human PKK protein inhibition (PKK protein [4]; 20 mg/kg/week s.c. twice a week for 3 weeks): 98% |
| mCes mCes mCes mCes mCes Tds Tds mCds Tds Tds Tds Ads Tds Ads Gds mCes mCes Aes Ges mCe [ISIS 546343] | tolerable in primates | effective for inhibiting PKK mRNA and protein expression | 26.2 | 1.0 | 42 | 12.6 | 373000 | 5.5e+06 | 14000 | 0.01 | 60 % of baseline | 0.2 | 76 | 49 | 4.3 | 56 | 74 | 69 | 70 | 70 | IC50 (human PKK mRNA [11]): 400 nM; human PKK mRNA inhibition (human PKK mRNA [3]; transgenic mice, 2.5, 5.0, 10 or 20 mg/kg/week s.c., three values for four doses, dose not assignable): 46% and 66% and 86%; inhibition of human PKK mRNA (human PKK mRNA [12]): 97% and 91% |
